Reference: patent US9150555B2, “Amide derivative and use thereof” (Mitsubishi Tanabe Pharma Corporation, priority 2010, dated 2015)
Structures can show the parent of a compound that is named as a salt.

Legend:
[1] = biological target: hERG (Homo sapiens, UniProt Q12809); test: Effects on hERG current (whole-cell clamping); conditions: human, HEK 293 cells that express hERG, pH 7.4, hERG inhibition rate (%) (1 μM), 1 μM; tail peak current; hERG-expressed HEK 293 cells
[2] = system: IL-17 production of mouse spleen cells stimulated by rm-IL-23; test: Production of IL-17 induced when mouse spleen cells were stimulated by recombinant mouse interleukin-23 (rm-IL-23); format: cell-based; conditions: Mus musculus, 72 h, inhibition of IL-17 production, DBA/1J mouse spleen cells, rm-IL-23 1 nmol/L, ELISA
Protocol: Effect on Production of IL-17 Induced when Mouse Spleen Cells were Stimulated by Recombinant Mouse Interleukin-23 (rm-IL-23)
An RPMI1640 (Sigma-Aldrich) was used as a medium, to which penicillin G potassium (50 units/mL; Gibco), streptomycin (50 μg/mL; Gibco) and 2-mercaptoethanol (50 μmol/l; Sigma-Aldrich) were added, and then 10% of fetal calf serum (FCS; Cell Culture Technology) inactivated at 56° C. for 30 minutes was added and used in the Test. The test compound was dissolved in dimethylsulfoxide and diluted with 10% FCS-containing RPMI1640 medium to a desired concentration and used in the test. The spleens were aseptically taken out from 6-7 week-old male DBA/1J mice (Charles River Japan, Inc.) and a single cell suspension of spleen cells was prepared and hemolyzed by hypotonic treatment with a mixture of 0.83% aqueous solution of ammonium chloride and Tris-HCl buffer of pH 7.65 (9:1). A cell suspension prepared by 10% FCS-containing RPMI1640 medium was added to flat-bottomed 96 well microtestplate at 2×10^5 cells/well. Test compounds and rm-IL-23 (R&D systems) were diluted with a medium to 1 to 1,000 nmol/L, and 1 nmol/L of the final concentration respectively, which were added and cultured at 37° C., 5% carbon dioxide and 95% air for 72 hours. After completion of the culture, culture supernatant was sampled and an amount of IL-17 production was determined by ELISA method. After sampling the supernatant, WST-8 (Seikagaku Corporation) was added at 10 μl/well and cultured at 37° C., 5% carbon dioxide and 95% air for 4 hours. Then, absorbance (O.D.: Optical Density) at 450 nm was measured by a microplate reader and the value was adopted as an index of cell survivability. An inhibition rate (%) was calculated according to the following formula on the basis of an average of an amount of IL-17 production and a O.D. values of the well containing a test compound of each concentration.
Based on the dose-response curve obtained by plotting the inhibition rate in the longitudinal axis and concentration in the horizontal axis, the concentration of the compound which inhibits the level to 50% of the value of the control group (IC50; nmol/L) was determined by linear regression analysis. The results was shown in the next Table 1

Sequence of hERG (Q12809 whole entry): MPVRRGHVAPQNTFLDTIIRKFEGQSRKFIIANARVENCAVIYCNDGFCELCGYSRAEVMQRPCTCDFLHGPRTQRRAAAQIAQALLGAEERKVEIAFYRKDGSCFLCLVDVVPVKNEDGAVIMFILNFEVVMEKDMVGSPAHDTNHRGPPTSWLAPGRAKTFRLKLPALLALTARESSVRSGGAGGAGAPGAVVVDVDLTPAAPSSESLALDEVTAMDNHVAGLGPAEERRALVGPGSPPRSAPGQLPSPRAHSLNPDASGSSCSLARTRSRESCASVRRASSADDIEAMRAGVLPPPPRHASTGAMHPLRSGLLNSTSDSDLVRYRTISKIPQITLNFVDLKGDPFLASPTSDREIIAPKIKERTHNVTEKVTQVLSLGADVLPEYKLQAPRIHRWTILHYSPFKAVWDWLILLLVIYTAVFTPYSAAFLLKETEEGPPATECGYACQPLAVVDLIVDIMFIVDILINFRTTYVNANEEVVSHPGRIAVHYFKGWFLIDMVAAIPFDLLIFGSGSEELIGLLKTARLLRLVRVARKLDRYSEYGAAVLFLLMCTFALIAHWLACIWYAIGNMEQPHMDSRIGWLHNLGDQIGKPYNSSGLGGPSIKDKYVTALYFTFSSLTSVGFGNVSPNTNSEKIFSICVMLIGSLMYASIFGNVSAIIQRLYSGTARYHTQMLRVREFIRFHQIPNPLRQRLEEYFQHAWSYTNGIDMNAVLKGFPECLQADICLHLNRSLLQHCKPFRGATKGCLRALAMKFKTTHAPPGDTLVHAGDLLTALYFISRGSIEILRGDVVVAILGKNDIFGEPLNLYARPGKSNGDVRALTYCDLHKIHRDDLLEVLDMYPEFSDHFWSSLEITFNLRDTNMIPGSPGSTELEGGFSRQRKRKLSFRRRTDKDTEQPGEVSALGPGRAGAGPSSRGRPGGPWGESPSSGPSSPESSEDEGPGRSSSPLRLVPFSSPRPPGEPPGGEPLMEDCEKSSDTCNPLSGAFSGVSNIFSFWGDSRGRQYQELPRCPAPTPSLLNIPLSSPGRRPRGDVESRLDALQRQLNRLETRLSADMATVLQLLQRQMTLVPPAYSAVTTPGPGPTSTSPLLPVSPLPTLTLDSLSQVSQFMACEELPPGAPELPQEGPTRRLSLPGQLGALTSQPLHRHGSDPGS

| SMILES | inhibition at 1 µM [1] [%] | IC50 [2] [nM] |
| --- | --- | --- |
| Cc1c(C(=O)Nc2ccc([C@]3(C#N)CC[C@@H](N4CCOCC4)CC3)nc2)cnn1-c1ccc(C(F)(F)F)cn1 [Example D1, N-{6-[r-1-Cyano-c-4-(morpholin-4-yl)cyclohexyl]pyridin-3-yl}-5-methyl-1-[5-(trifluoromethyl)pyridin-2-yl]-1H-pyrazole-4-carboxamide hydrochloride] | 22.6 | 78.9 |
| Cc1c(C(=O)Nc2ccc(C3=CCC(N4CCOCC4)CC3)nc2)cnn1-c1ccc(C2CC2)cn1 (centres unmarked) [Example D5, 1-(5-Cyclopropylpyridin-2-yl)-5-methyl-N-{6-[4-(morpholin-4-yl)cyclohex-1-en-1-yl]pyridin-3-yl}-1H-pyrazole-4-carboxamide mesylate] | 15.1 | 119 |
| Cc1c(C(=O)Nc2ccc([C@H]3CC[C@H](N4CCOCC4)CC3)nc2)cnn1-c1ccc(C(F)(F)F)cn1 [Example D6, trans-5-Methyl-N-{6-[4-(morpholin-4-yl)cyclohexyl]pyridin-3-yl}-1-[5-(trifluoromethyl)-pyridin-2-yl]-1H-pyrazole-4-carboxamide mesylate] | 24.5 | 63.3 |
| Cc1c(C(=O)Nc2ccc([C@]3(C#N)CC[C@@H](N4CCOCC4)CC3)nc2)cnn1-c1ncc(Cl)cc1Cl [Example D7, N-{6-[r-1-Cyano-c-4-(morpholin-4-yl)cyclohexyl]pyridin-3-yl}-1-(3,5-dichloropyridin-2-yl)-5-methyl-1H-pyrazole-4-carboxamide hydrochloric acid salt] | 24.7 | 208 |
| Cc1c(C(=O)Nc2ccc([C@]3(C#N)CC[C@@H](N4CCC(O)C4)CC3)nc2)cnn1-c1ccc(C(F)(F)F)cn1 (some centres unmarked) [Example D13, N-{6-[r-1-Cyano-c-4-(3-hydroxypyrrolidin-1-yl)cyclohexyl]pyridin-3-yl}-5-methyl-1-[5-(trifluoromethyl)pyridin-2-yl]-1H-pyrazole-4-carboxamide] | 22 | 154 |
| Cc1c(C(=O)Nc2ccc([C@]3(C#N)CC[C@@H](N4CCOCC4)CC3)nc2)cnn1-c1ncc(C(F)(F)F)cc1F [Example D14, N-{6-[r-1-Cyano-c-4-(morpholin-4-yl)cyclohexyl]pyridin-3-yl}-1-[3-fluoro-5-(trifluoromethyl)pyridin-2-yl]-5-methyl-1H-pyrazole-4-carboxamide] | 6.4 | 162 |
| CO[C@H]1CC[C@](C#N)(c2ccc(NC(=O)c3cnn(-c4ccc(C)cc4)c3C)cn2)CC1 [Example D18, N-{6-[r-1-Cyano-c-4-methoxycyclohexyl]pyridin-3-yl}-5-methyl-1-(4-methylphenyl)-1H-pyrazole-4-carboxamide] | 7.2 | 251 |
| Cc1cc(NC(=O)c2cnn(-c3ncc(Cl)cc3F)c2C)cnc1C1=CCC(N2CCOCC2)CC1 (centres unmarked) [Example D19, 1-[5-Chloro-3-fluoropyridin-2-yl]-5-methyl-N-{5-methyl-6-[4-(morpholin-4-yl)cyclohex-1-en-1-yl]pyridin-3-yl}-1H-pyrazole-4-carboxamide] | 35.1 | 92 |
| Cc1cc(NC(=O)c2cnn(-c3ccc(C(F)(F)F)cn3)c2C)cnc1C1=CC[C@H](N2CCOCC2)CC1 [Example D21, (R)-5-Methyl-N-{5-methyl-6-[4-(morpholin-4-yl)cyclohex-1-en-1-yl]pyridin-3-yl}-1-[5-(trifluoromethyl)pyridin-2-yl]-1H-pyrazole-4-carboxamide] | 14.3 | 39.5 |
| Cc1cc(NC(=O)c2cnn(-c3ccc(C(F)(F)F)cn3)c2C)cnc1C1=CC[C@@H](N2CCOCC2)CC1 [Example D22, (S)-5-Methyl-N-{5-methyl-6-[4-(morpholin-4-yl)cyclohex-1-en-1-yl]pyridin-3-yl}-1-[5-(trifluoromethyl)pyridin-2-yl]-1H-pyrazole-4-carboxamide] | 31 | 36.2 |
| Cc1cc(NC(=O)c2cnn(-c3ccc(C(F)(F)F)cn3)c2C)cnc1C1=CCC(O)CC1 (centres unmarked) [Example D23, N-[6-(4-Hydroxycyclohex-1-en-1-yl)-5-methylpyridin-3-yl]-5-methyl-1-[5-(trifluoromethyl)-pyridin-2-yl]-1H-pyrazole-4-carboxamide] | 20.2 | 105 |
| Cc1cc(NC(=O)c2cnn(-c3ncc(C(F)(F)F)cc3F)c2C)cnc1C1=CCC(N2CCOCC2)CC1 (centres unmarked) [Example D24, 1-[3-Fluoro-5-(trifluoromethyl)pyridin-2-yl]-5-methyl-N-{5-methyl-6-[4-(morpholin-4-yl)cyclohex-1-en-1-yl]pyridin-3-yl}-1H-pyrazole-4-carboxamide mesylate] | 20.9 | 40.3 |
| Cc1cc(NC(=O)c2cnn(-c3ncc(C(F)(F)F)cc3F)c2C)cnc1C1=CCC(O)CC1 (centres unmarked) [Example D25, 1-[3-Fluoro-5-(trifluoromethyl)pyridin-2-yl]-5-methyl-N-[5-methyl-6-(4-hydroxycyclohex-1-en-1-yl)pyridin-3-yl]-1H-pyrazole-4-carboxamide] | 4.2 | 148 |
| Cc1c(C(=O)Nc2ccc([C@]3(C#N)CC[C@@H](N4CCOCC4)CC3)nc2)cnn1-c1ccc(C(C)C)cn1 [Example D26, N-{6-[r-1-Cyano-c-4-(morpholin-4-yl)cyclohexyl]pyridin-3-yl}-1-(5-isopropylpyridin-2-yl)-5-methyl-1H-pyrazole-4-carboxamide mesylate] | 26.4 | 125 |
| Cc1c(C(=O)Nc2ccc(C3(C#N)CCC4(CC3)OCCO4)nc2)cnn1-c1ccc(Br)cn1 [Example D29] | 27.7 | 86.9 |
| Cc1c(C(=O)Nc2ccc(C3(C#N)CCC4(CC3)OCCO4)nc2)cnn1-c1ccc(C(F)(F)F)cn1 [Example D41] | 26.4 | 32.8 |
| Cc1c(C(=O)Nc2ccc([C@]3(O)CC[C@@H](N4CCOCC4)CC3)nc2)cnn1-c1ccc(C(F)(F)F)cc1 [Example D53] | 25.1 | 169 |
| Cc1c(C(=O)Nc2ccc([C@H]3CC[C@H](N4CCOCC4)CC3)nc2)cnn1-c1ccc(C(F)F)cn1 [Example D63] | 40.4 | 207 |
| Cc1c(C(=O)Nc2ccc([C@H]3CC[C@H](N4CCOCC4)CC3)nc2)cnn1-c1ccc(C2CC2)cn1 [Example D64] | 27.9 | 160 |
| Cc1c(C(=O)Nc2ccc([C@H]3CC[C@H](N4CCOCC4)CC3)nc2)cnn1-c1ncc(C2CC2)cc1F [Example D65] | 5.5 | 139 |
| Cc1c(C(=O)Nc2ccc(C3=CCC(N4CCOCC4)CC3)nc2)cnn1-c1ccc(C(F)(F)F)cc1 (centres unmarked) [Example D71] | 16.5 | 62.5 |
| Cc1c(C(=O)Nc2ccc([C@]3(C#N)CC[C@@H](N4CCOCC4)CC3)nc2)cnn1-c1ccc(C(C)(C)C)cc1 [Example D88] | 43 | 52.6 |
| Cc1c(C(=O)Nc2ccc([C@]3(C#N)CC[C@@H](N4CCOCC4)CC3)nc2)cnn1-c1ccc(F)cc1 [Example D89] | 44.4 | 183 |
| Cc1c(C(=O)Nc2ccc([C@]3(C#N)CC[C@@H](N4CCOCC4)CC3)nc2)cnn1-c1ccc(C(C)(C)C)cn1 [Example D104] | 13.8 | 212 |
| Cc1ccc(-n2ccc(C(=O)Nc3ccc(C4(C#N)CCC5(CC4)OCCO5)nc3)c2)cc1C [Example D153] | 47.6 | 55.1 |
| Cc1c(C(=O)Nc2ccc(C3CCC4(CC3)OCCO4)nc2)cnn1-c1ccc(C(C)(C)C)cc1 [Example D165] | 8.9 | 44 |
| Cc1cc(NC(=O)c2cnn(-c3ncc(C(F)(F)F)cc3Cl)c2C)cnc1C1=CCC(N2CCOCC2)CC1 (centres unmarked) [Example D175] | 31.7 | 49.8 |
| Cc1cc(NC(=O)c2cnn(-c3ncc(C4CC4)cc3F)c2C)cnc1C1=CCC(N2CCOCC2)CC1 (centres unmarked) [Example D177] | 13 | 66 |
| Cc1cc(NC(=O)c2cnn(-c3ncc(C(F)(F)F)cc3C)c2C)cnc1C1=CCC(N2CCOCC2)CC1 (centres unmarked) [Example D188] | 40 | 86.3 |
| COc1cc(NC(=O)c2cnn(-c3ccc(C(F)(F)F)cn3)c2C)cnc1C1=CCC(N(C)C(=O)C(C)(C)C)CC1 (centres unmarked) [Example K69, N-(6-{4-[N-(2,2-Dimethylpropion-1-yl)-N-methylamino]cyclohex-1-en-1-yl}-5-methoxypyridin-3-yl)-5-methyl-1-[5-(trifluoromethyl)pyridin-2-yl]-1H-pyrazole-4-carboxamide] | 1.3 | – |
